Assay results from patent publication US10793563B2, “GCN2 inhibitors and uses thereof” (Merck Patent GmbH, priority 2018, dated 2020).
pIC50, pKi: −log10 of the molar value.

Legend:
GCN2 kinase = GCN2 kinase (Homo sapiens (Human), UniProt Q9P2K8); test: GCN2 Enzyme Inhibition Assay (Transcreener ADP2 fluorescence polarization); format: biochemical; details: 280 μM ATP, 200 μM (RS)7 peptide, 4 nM GCN2, 25° C.
Summary of the method: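 Transcreener ADP2 fluorescence polarization detection of ADP from 4 nM GCN2 with (RS)7 substrate in 25 mM Tris-HCl pH 7.5, 50 mM NaCl, 10 mM MgCl2, 1 mM DTT. Compound pre-incubated with enzyme 10 min at 25 °C; reaction started by ATP, run 1 h at 25 °C. IC50 and Ki(app) by tight-binding fit.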

[1] = target: intracellular GCN2 (phosphorylation of the GCN2 substrate eIF2α) (Homo sapiens (Human), UniProt Q9P2K8); test: GCN2 Cellular Inhibition Assay (AlphaScreen SureFire P-eIF2α Ser51, borrelidin-treated U2OS cells); format: cell-based; details: 10 μM borrelidin, 1 h, phosphorylated eIF2α Ser51, read-out: GCN2 Biomarker (IC50)
Summary of the method: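 U2OS cells adhered overnight, then given compound (top 40 μM, 4-fold serial dilutions) plus 10 μM borrelidin for 1 h at 37 °C. Lysates assayed for eIF2α phospho-Ser51 by AlphaScreen SureFire; % inhibition versus borrelidin-only wells.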

Chain of intracellular GCN2 (phosphorylation of the GCN2 substrate eIF2α) (Q9P2K8 whole entry): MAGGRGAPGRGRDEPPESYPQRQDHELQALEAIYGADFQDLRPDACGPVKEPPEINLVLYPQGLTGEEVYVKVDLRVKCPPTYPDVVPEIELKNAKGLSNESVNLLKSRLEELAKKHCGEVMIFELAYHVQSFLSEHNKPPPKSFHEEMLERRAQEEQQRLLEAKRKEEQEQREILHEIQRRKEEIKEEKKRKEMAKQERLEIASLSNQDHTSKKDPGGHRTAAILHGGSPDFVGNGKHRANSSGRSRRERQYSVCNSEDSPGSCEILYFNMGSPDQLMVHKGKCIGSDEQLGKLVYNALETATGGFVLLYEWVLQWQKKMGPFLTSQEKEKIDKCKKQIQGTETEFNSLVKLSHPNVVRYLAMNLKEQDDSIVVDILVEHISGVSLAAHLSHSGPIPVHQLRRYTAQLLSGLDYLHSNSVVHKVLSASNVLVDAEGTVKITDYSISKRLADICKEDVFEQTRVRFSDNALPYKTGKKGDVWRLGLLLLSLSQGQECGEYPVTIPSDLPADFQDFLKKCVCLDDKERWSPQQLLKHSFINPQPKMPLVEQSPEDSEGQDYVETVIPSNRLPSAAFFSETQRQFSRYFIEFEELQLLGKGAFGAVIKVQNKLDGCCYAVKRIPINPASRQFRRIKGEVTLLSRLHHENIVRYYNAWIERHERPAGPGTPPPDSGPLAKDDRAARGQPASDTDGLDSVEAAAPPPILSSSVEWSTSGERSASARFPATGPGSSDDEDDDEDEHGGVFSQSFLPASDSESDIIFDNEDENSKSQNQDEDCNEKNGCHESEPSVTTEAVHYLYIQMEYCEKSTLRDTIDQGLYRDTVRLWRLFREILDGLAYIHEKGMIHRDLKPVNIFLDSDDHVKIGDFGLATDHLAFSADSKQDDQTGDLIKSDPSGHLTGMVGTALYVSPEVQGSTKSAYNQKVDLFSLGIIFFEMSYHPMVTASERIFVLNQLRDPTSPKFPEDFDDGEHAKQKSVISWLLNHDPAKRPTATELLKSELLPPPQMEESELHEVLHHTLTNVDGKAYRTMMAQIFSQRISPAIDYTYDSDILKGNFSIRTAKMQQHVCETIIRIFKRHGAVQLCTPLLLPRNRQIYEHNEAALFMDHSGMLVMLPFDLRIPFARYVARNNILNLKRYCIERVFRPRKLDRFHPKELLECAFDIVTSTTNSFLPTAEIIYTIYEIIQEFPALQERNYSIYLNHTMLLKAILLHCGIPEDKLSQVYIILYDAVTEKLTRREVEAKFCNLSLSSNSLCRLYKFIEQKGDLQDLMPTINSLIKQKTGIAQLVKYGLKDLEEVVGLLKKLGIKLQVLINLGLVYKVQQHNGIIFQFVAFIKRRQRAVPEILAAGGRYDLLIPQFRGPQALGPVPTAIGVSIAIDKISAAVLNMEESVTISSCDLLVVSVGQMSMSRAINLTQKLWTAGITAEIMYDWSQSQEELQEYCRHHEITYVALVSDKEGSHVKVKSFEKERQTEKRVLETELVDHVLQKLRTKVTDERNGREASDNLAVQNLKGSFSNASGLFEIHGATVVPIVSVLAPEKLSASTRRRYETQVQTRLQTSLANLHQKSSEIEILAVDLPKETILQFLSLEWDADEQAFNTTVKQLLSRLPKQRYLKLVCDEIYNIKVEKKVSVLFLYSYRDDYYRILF
Chain of GCN2 kinase (Q9P2K8 whole entry): as above

| pIC50 (GCN2 kinase) | pIC50 [1] | pKi (GCN2 kinase; Ki(app)) | SMILES |
| --- | --- | --- | --- |
| > 8.00 | > 6.30 | – | C[C@H]1C[C@@H](c2cn[nH]c2)CN(c2nccc(-c3cnc4ccc(Cl)cn34)n2)C1 [I-199, 6-chloro-3-(2-((3S,5S)-3-methyl-5-(1H-pyrazol-4-yl)piperidin-1-yl)pyrimidin-4-yl)imidazo[1,2-a]pyridine] |
| 7.00 to 8.00 | 5.30 to 6.30 | – | CC1CCC(C(=O)O)CN1c1ccnc(-c2cnc3ccc(C(F)(F)F)cn23)n1 (stereo not shown) [I-201, 6-methyl-1-(2-(6-(trifluoromethyl)imidazo[1,2-a]pyridin-3-yl)pyrimidin-4-yl)piperidine-3-carboxylic acid] |
| > 8.00 | > 6.30 | > 8.00 | NC(=O)C1CN(c2ccnc(-c3cnc4ccc(C(F)(F)F)cn34)n2)CC(F)(F)C1 (stereo not shown) [I-202, 5,5-Difluoro-1-[2-(6-trifluoromethyl-imidazo[1,2-a]pyridin-3-yl)-pyrimidin-4-yl]-piperidine-3-carboxylic acid amide] |
| 7.00 to 8.00 | 5.30 to 6.30 | – | Cc1cnc(N2C[C@@H](c3cn[nH]c3C)O[C@@H](C)C2)nc1-c1cnc2ccc(Cl)cn12 [I-203, (2S,6R)-4-(4-(6-chloroimidazo[1,2-a]pyridin-3-yl)-5-methylpyrimidin-2-yl)-2-methyl-6-(5-methyl-1H-pyrazol-4-yl)morpholine] |
| 7.00 to 8.00 | 5.30 to 6.30 | – | Cc1cnc(N2C[C@@H](C)O[C@@H](c3cn[nH]c3C)C2)nc1-c1cnc2ccc(Cl)cn12 [I-204, (2R,6S)-4-(4-(6-chloroimidazo[1,2-a]pyridin-3-yl)-5-methylpyrimidin-2-yl)-2-methyl-6-(5-methyl-1H-pyrazol-4-yl)morpholine] |
| 7.00 to 8.00 | > 6.30 | – | Cc1cc(-c2cnc3ccc(Cl)cn23)nc(N2C[C@@H](C)C[C@@H](c3cn[nH]c3)C2)n1 [I-208, 6-chloro-3-(6-methyl-2-((3S,5S)-3-methyl-5-(1H-pyrazol-4-yl)piperidin-1-yl)pyrimidin-4-yl)imidazo[1,2-a]pyridine] |
| 7.00 to 8.00 | 5.30 to 6.30 | – | NC(=O)C1(O)CCCN(c2ccnc(-c3cnc4ccc(C(F)(F)F)cn34)n2)C1 (stereo not shown) [I-213, 3-hydroxy-1-(2-(6-(trifluoromethyl)imidazo[1,2-a]pyridin-3-yl)pyrimidin-4-yl)piperidine-3-carboxamide] |
| 7.00 to 8.00 | 5.30 to 6.30 | – | NC(=O)C1CN(c2ccnc(-c3cnc4ccc(C(F)(F)F)cn34)n2)CCN1 (stereo not shown) [I-217, 4-(2-(6-(trifluoromethyl)imidazo[1,2-a]pyridin-3-yl)pyrimidin-4-yl)piperazine-2-carboxamide] |
| 7.00 to 8.00 | 5.30 to 6.30 | – | Cc1cc(-c2cnc3ccc(Cl)cn23)nc(N2C[C@@H](C)O[C@H](c3cn[nH]c3C)C2)n1 [I-218, (2R,6R)-4-(4-(6-chloroimidazo[1,2-a]pyridin-3-yl)-6-methylpyrimidin-2-yl)-2-methyl-6-(5-methyl-1H-pyrazol-4-yl)morpholine] |
| 7.00 to 8.00 | 5.30 to 6.30 | – | NC(=O)[C@H]1CCCN(c2ncc(F)c(-c3cnc4ccc(C(F)(F)F)cn34)n2)C1 [I-219, (S)-1-(5-fluoro-4-(6-(trifluoromethyl)imidazo[1,2-a]pyridin-3-yl)pyrimidin-2-yl)piperidine-3-carboxamide] |
| 7.00 to 8.00 | 5.30 to 6.30 | – | Cc1cc(-c2cnc3ccc(Cl)cn23)nc(N2C[C@H](C)O[C@@H](c3c[nH]nc3C)C2)n1 [I-220, (2S,6S)-4-(4-(6-chloroimidazo[1,2-a]pyridin-3-yl)-6-methylpyrimidin-2-yl)-2-methyl-6-(5-methyl-1H-pyrazol-4-yl)morpholine] |
| > 8.00 | > 6.30 | – | Cc1cc(-c2cnc3ccc(Cl)cn23)nc(N2C[C@@H](c3c[nH]nc3C)O[C@@H](C)C2)n1 [I-221, (2S,6R)-4-(4-(6-chloroimidazo[1,2-a]pyridin-3-yl)-6-methylpyrimidin-2-yl)-2-methyl-6-(5-methyl-1H-pyrazol-4-yl)morpholine] |
| 7.00 to 8.00 | > 6.30 | – | Cc1cc(-c2cnc3ccc(Cl)cn23)nc(N2C[C@@H](C)O[C@@H](c3c[nH]nc3C)C2)n1 [I-222, (2R,6S)-4-(4-(6-chloroimidazo[1,2-a]pyridin-3-yl)-6-methylpyrimidin-2-yl)-2-methyl-6-(5-methyl-1H-pyrazol-4-yl)morpholine] |
| 6.00 to 7.00 | > 6.30 | – | FC1(F)CCCN(c2ccnc(-c3cnc4ccc(C(F)(F)F)cn34)n2)C1 [I-224, 3-(4-(3,3-difluoropiperidin-1-yl)pyrimidin-2-yl)-6-(trifluoromethyl)imidazo[1,2-a]pyridine] |
| 6.00 to 7.00 | 5.30 to 6.30 | – | FC(F)C1CN(c2ccnc(-c3cnc4ccc(C(F)(F)F)cn34)n2)CCO1 (stereo not shown) [I-225, 2-(difluoromethyl)-4-(2-(6-(trifluoromethyl)imidazo[12-a]pyridin-3-yl)pyrimidin-4-yl)morpholine] |
| 6.00 to 7.00 | 5.30 to 6.30 | – | CC1(F)CCCN(c2ccnc(-c3cnc4ccc(C(F)(F)F)cn34)n2)C1 (stereo not shown) [I-226, 3-(4-(3-fluoro-3-methylpiperidin-1-yl)pyrimidin-2-yl)-6-(trifluoromethyl)imidazo[1,2-a]pyridine] |
| 7.00 to 8.00 | 5.30 to 6.30 | – | N#C[C@H]1CCCN(c2ccnc(-c3cnc4ccc(C(F)(F)F)cn34)n2)C1 [I-227, (S)-1-(2-(6-(trifluoromethyl)imidazo[1,2-a]pyridin-3-yl)pyrimidin-4-yl)piperidine-3-carbonitrile] |
| 6.00 to 7.00 | 5.30 to 6.30 | – | N#C[C@@H]1CN(c2ccnc(-c3cnc4ccc(C(F)(F)F)cn34)n2)CCO1 [I-232, (S)-4-(2-(6-(trifluoromethyl)imidazo[1,2-a]pyridin-3-yl)pyrimidin-4-yl)morpholine-2-carbonitrile] |
| 6.00 to 7.00 | 5.30 to 6.30 | – | FC(F)(F)c1ccc2ncc(-c3nccc(N4CCC[C@H](C(F)(F)F)C4)n3)n2c1 [I-233, (S)-6-(trifluoromethyl)-3-(4-(3-(trifluoromethyl)piperidin-1-yl)pyrimidin-2-yl)imidazo[1,2-a]pyridine] |
| 7.00 to 8.00 | > 6.30 | – | C[C@H]1C[C@H](c2cn[nH]c2)CN(c2nccc(-c3cnc4ccc(C5CC5)cn34)n2)C1 [I-235, 6-cyclopropyl-3-(2-((3S,5R)-3-methyl-5-(1H-pyrazol-4-yl)piperidin-1-yl)pyrimidin-4-yl)imidazo[1,2-a]pyridine] |
| 7.00 to 8.00 | > 6.30 | – | C[C@@H]1C[C@@H](c2cn[nH]c2)CN(c2nccc(-c3cnc4ccc(C5CC5)cn34)n2)C1 [I-236, 6-cyclopropyl-3-(2-((3R,5S)-3-methyl-5-(1H-pyrazol-4-yl)piperidin-1-yl)pyrimidin-4-yl)imidazo[1,2-a]pyridine] |
| 7.00 to 8.00 | 5.30 to 6.30 | – | O[C@@H]1C[C@H](O)CN(c2ccnc(-c3cnc4ccc(C(F)(F)F)cn34)n2)C1 [I-238, (3R,5S)-1-(2-(6-(trifluoromethyl)imidazo[1,2-a]pyridin-3-yl)pyrimidin-4-yl)piperidine-3,5-diol] |
| 7.00 to 8.00 | 5.30 to 6.30 | – | OCC1CN(c2ccnc(-c3cnc4ccc(C(F)(F)F)cn34)n2)CCC1O (stereo not shown) [I-241, 3-(hydroxymethyl)-1-(2-(6-(trifluoromethyl)imidazo[1,2-a]pyridin-3-yl)pyrimidin-4-yl)piperidin-4-ol] |
| 7.00 to 8.00 | < 5.30 | – | NS(=O)(=O)C1CCCN(c2ccnc(-c3cnc4ccc(C(F)(F)F)cn34)n2)C1 (stereo not shown) [I-242, 1-(2-(6-(trifluoromethyl)imidazo[1,2-a]pyridin-3-yl)pyrimidin-4-yl)piperidine-3-sulfonamide] |
